Laboratory results taken from ChEMBL document CHEMBL1153216, “Parallel synthesis of N-biaryl quinolone carboxylic acids as selective M(1) positive allosteric modulators” (Bioorg Med Chem Lett, 2010).

Key:
[1] = target: T1, Muscarinic acetylcholine receptor M1 (Homo sapiens) (UniProt P11229); assay: Allosteric modulation of human muscarinic M1 receptor expressed in CHO cells assessed as effect on acetylcholine-induced calcium mobilization by FLIPR assay; assay type: functional, cell-based
T1 sequence (whole entry): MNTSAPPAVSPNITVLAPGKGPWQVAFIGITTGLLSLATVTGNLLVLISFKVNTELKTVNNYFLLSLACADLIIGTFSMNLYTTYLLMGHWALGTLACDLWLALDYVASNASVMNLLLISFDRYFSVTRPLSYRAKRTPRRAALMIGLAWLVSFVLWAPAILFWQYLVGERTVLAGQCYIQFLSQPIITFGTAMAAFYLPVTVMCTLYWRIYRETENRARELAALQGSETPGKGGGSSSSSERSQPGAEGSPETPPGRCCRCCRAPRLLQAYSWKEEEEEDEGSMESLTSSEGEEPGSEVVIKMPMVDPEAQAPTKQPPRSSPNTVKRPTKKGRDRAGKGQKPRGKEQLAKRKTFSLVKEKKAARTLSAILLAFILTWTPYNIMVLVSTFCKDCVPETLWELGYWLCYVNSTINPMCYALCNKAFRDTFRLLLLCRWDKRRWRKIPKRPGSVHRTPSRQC

[2] = Plasma protein binding in rat serum by equilibrium dialysis method
[3] = Plasma protein binding in human serum by equilibrium dialysis method
[4] = Drug level in rat cerebrospinal fluid at 10 mg/kg, po after 1 hr

Work on `Cn1cc(-c2ccc(Cn3cc(C(=O)O)c(=O)c4ccccc43)c(F)c2)cn1` yielded an IP [1] of 37 nM.

Work on `O=C(O)c1cn(Cc2ccc(-c3cccc4cccnc34)cc2)c2cccc(F)c2c1=O` yielded an IP [1] of 190 nM and a fraction unbound [2] of 0.015.

`CNc1ccc(-c2ccc(Cn3cc(C(=O)O)c(=O)c4cccc(F)c43)cc2)cn1` showed an IP [1] of 48 nM.

`O=C(O)c1cn(Cc2ccc(-c3ccccc3)cc2F)c2ccccc2c1=O` gave an IP [1] of 50 nM.

In the case of `O=C(O)c1cn(Cc2ccc(OC(F)(F)F)cc2)c2cccc(F)c2c1=O`, the IP [1] was 2800 nM.

`O=C(O)c1cn(C2(c3ccccc3)CC2)c2ccccc2c1=O` showed an IP [1] of 13000 nM.

In the case of `O=C(O)c1cn(Cc2ccc(Br)cc2F)c2c(F)cccc2c1=O`, the IP [1] was 1200 nM.

Molecule `O=C(O)c1cn(Cc2ccccc2C(F)(F)F)c2ccccc2c1=O` has an IP [1] of 4300 nM.

Work on `CN(C)c1cc(-c2ccc(Cn3cc(C(=O)O)c(=O)c4cccc(F)c43)cc2)ccn1` yielded an IP [1] of 45 nM.

`COc1cccc(Cn2cc(C(=O)O)c(=O)c3ccccc32)c1` gave an IP [1] of 2800 nM.

`COc1ccc(Cn2cc(C(=O)O)c(=O)c3cccc(F)c32)cc1` showed an IP [1] of 1100 nM.

Molecule `O=C(O)c1cn(Cc2ccccc2)c2c(F)cccc2c1=O` has an IP [1] of 4000 nM.

Molecule `O=C(O)c1cn(Cc2c(F)cccc2F)c2cccc(F)c2c1=O` has an IP [1] of 1300 nM.

With `O=C(O)c1cn(Cc2ccc(C3CC3)cc2)c2cccc(F)c2c1=O` the IP [1] was 830 nM.

`O=C(O)c1cn(Cc2ccc(-c3ccccc3)cc2)c2c(F)cccc2c1=O` gave an IP [1] of 380 nM.

In the case of `O=C(O)c1cn(Cc2ccccc2C(F)(F)F)c2c(F)ccc(F)c2c1=O`, the IP [1] was 2300 nM.

Molecule `O=C(O)c1cn(Cc2ccc(-c3ccncc3)cc2)c2c(F)cccc2c1=O` has an IP [1] of 100 nM.

Molecule `O=C(O)c1cn(Cc2ccc(-c3cccc(CO)n3)cc2)c2c(F)cccc2c1=O` has an IP [1] of 250 nM, a fraction unbound [2] of 0.022 and a fraction unbound [3] of 0.058.

Molecule `O=C(O)c1cn(C2(c3ccccc3)CC2)c2c(F)cccc2c1=O` has an IP [1] of 22000 nM.

In the case of `O=C(O)c1cn(Cc2ccc(-c3ccccc3)cc2)c2cccc(F)c2c1=O`, the IP [1] was 84 nM.

In the case of `O=C(O)c1cn(Cc2cccc(C(F)(F)F)c2)c2c(F)ccc(F)c2c1=O`, the IP [1] was 1600 nM.

`O=C(O)c1cn(Cc2ccc(OC(F)(F)F)cc2)c2c(F)ccc(F)c2c1=O` gave an IP [1] of 1300 nM.

Molecule `COc1cccc(Cn2cc(C(=O)O)c(=O)c3cccc(F)c32)c1` has an IP [1] of 2700 nM.

For `O=C(O)c1cn(Cc2cccc(OC(F)(F)F)c2)c2ccccc2c1=O`, the IP [1] was 4100 nM.

Work on `O=C(O)c1cn(Cc2ccccc2)c2c(F)ccc(F)c2c1=O` yielded an IP [1] of 3000 nM.

Work on `O=C(O)c1cn(Cc2ccc(-c3ccccc3)cc2Cl)c2ccccc2c1=O` yielded an IP [1] of 120 nM.

`O=C(O)c1cn(Cc2cccc(C(F)(F)F)c2)c2ccccc2c1=O` showed an IP [1] of 7200 nM.

Work on `COc1cccc(Cn2cc(C(=O)O)c(=O)c3c(F)ccc(F)c32)c1` yielded an IP [1] of 4200 nM.

With `N#Cc1ccccc1-c1ccc(Cn2cc(C(=O)O)c(=O)c3c(F)cccc32)cc1` the IP [1] was 400 nM.

Molecule `O=C(O)c1cn(Cc2ccc(C(F)(F)F)cc2)c2c(F)ccc(F)c2c1=O` has an IP [1] of 760 nM.

`O=C(O)c1cn(Cc2c(F)cccc2F)c2c(F)ccc(F)c2c1=O` showed an IP [1] of 610 nM.

With `O=C(O)c1cn(Cc2ccc(C3CC3)cc2)c2c(F)cccc2c1=O` the IP [1] was 1200 nM.

In the case of `O=C(O)c1cn(Cc2cccc(OC(F)(F)F)c2)c2c(F)ccc(F)c2c1=O`, the IP [1] was 3200 nM.

For `O=C(O)c1cn(Cc2ccc(-c3cn[nH]c3)cc2F)c2cccc(F)c2c1=O`, the IP [1] was 41 nM, the fraction unbound [2] was 0.02 and the fraction unbound [3] was 0.044.

`CS(=O)(=O)c1ccc(Cn2cc(C(=O)O)c(=O)c3ccccc32)cc1` gave an IP [1] of 18000 nM.

`O=C(O)c1cn(Cc2ccc(OC(F)(F)F)cc2)c2ccccc2c1=O` showed an IP [1] of 1800 nM.

`O=C(O)c1cn(Cc2ccc(-c3cccnc3)cc2)c2cccc(F)c2c1=O` showed a concentration at 1 h [4] of 24 nM, an IP [1] of 61 nM and a fraction unbound [2] of 0.051. The fraction unbound [3] was 0.055.

Molecule `O=C(O)c1cn(Cc2ccccc2C(F)(F)F)c2c(F)cccc2c1=O` has an IP [1] of 6900 nM.

In the case of `O=C(O)c1cn(Cc2ccc(OC(F)(F)F)cc2)c2c(F)cccc2c1=O`, the IP [1] was 2100 nM.

`NC(=O)c1cccc(Cn2cc(C(=O)O)c(=O)c3ccccc32)c1` gave an IP [1] of 4300 nM.

Molecule `N#Cc1ccccc1-c1ccc(Cn2cc(C(=O)O)c(=O)c3cccc(F)c32)cc1` has an IP [1] of 540 nM.

`O=C(O)c1cn(Cc2ccc(Br)cc2F)c2cccc(F)c2c1=O` showed an IP [1] of 1100 nM.

In the case of `O=C(O)c1cn(Cc2ccccc2)c2ccccc2c1=O`, the IP [1] was 1700 nM.

Molecule `O=C(O)c1cn(Cc2ccc(Br)cc2F)c2c(F)ccc(F)c2c1=O` has an IP [1] of 860 nM.

For `CS(=O)(=O)c1ccc(Cn2cc(C(=O)O)c(=O)c3cccc(F)c32)cc1`, the IP [1] was 13000 nM.

`COc1ccc(-c2ccc(Cn3cc(C(=O)O)c(=O)c4cccc(F)c43)cc2)cn1` gave an IP [1] of 63 nM.

With `O=C(O)c1cn(Cc2ccc(-c3cccc4[nH]ccc34)cc2)c2c(F)cccc2c1=O` the IP [1] was 76 nM.

In the case of `COc1cccc(Cn2cc(C(=O)O)c(=O)c3c(F)cccc32)c1`, the IP [1] was 2100 nM.

`COc1ccc(Cn2cc(C(=O)O)c(=O)c3c(F)cccc32)cc1` showed an IP [1] of 2000 nM.

For `O=C(O)c1cn(Cc2ccc(-c3cn[nH]c3)cc2F)c2ccccc2c1=O`, the IP [1] was 56 nM.

Molecule `NC(=O)c1cccc(Cn2cc(C(=O)O)c(=O)c3cccc(F)c32)c1` has an IP [1] of 3400 nM.

`O=C(O)c1cn(Cc2ccc(-c3ccccc3)cc2)c2ccccc2c1=O` gave an IP [1] of 210 nM.

In the case of `Nc1cccc(-c2ccc(Cn3cc(C(=O)O)c(=O)c4cccc(F)c43)cc2)c1`, the IP [1] was 210 nM.

For `O=C(O)c1cn(Cc2ccc(C(F)(F)F)cc2)c2cccc(F)c2c1=O`, the IP [1] was 1500 nM.

For `O=C(O)c1cn(Cc2ccc(-c3ccccc3)cc2)c2c(F)ccc(F)c2c1=O`, the IP [1] was 270 nM.

With `O=C(O)c1cn(CCc2ccccc2)c2c(F)cccc2c1=O` the IP [1] was 24000 nM.

Work on `O=C(O)c1cn(Cc2ccc(-c3cncnc3)cc2)c2c(F)cccc2c1=O` yielded an IP [1] of 830 nM.

In the case of `O=C(NC1CC1)c1ccc(-c2ccc(Cn3cc(C(=O)O)c(=O)c4cccc(F)c43)cc2)cc1`, the IP [1] was 110 nM.

With `O=C(O)c1cn(Cc2c(F)cccc2F)c2c(F)cccc2c1=O` the IP [1] was 1000 nM.

In the case of `O=C(O)c1cn(Cc2cccc(OC(F)(F)F)c2)c2cccc(F)c2c1=O`, the IP [1] was 5900 nM.

Molecule `CS(=O)(=O)c1ccc(Cn2cc(C(=O)O)c(=O)c3c(F)ccc(F)c32)cc1` has an IP [1] of 16000 nM.

`O=C(O)c1cn(Cc2cccc(C(F)(F)F)c2)c2c(F)cccc2c1=O` showed an IP [1] of 2700 nM.

Molecule `CN1CCN(c2ccc(-c3ccc(Cn4cc(C(=O)O)c(=O)c5cccc(F)c54)cc3)cn2)CC1` has an IP [1] of 51 nM.

In the case of `CN(C)c1cccc(-c2ccc(Cn3cc(C(=O)O)c(=O)c4cccc(F)c43)cc2)c1`, the IP [1] was 94 nM.

`Nc1ccc(-c2ccc(Cn3cc(C(=O)O)c(=O)c4cccc(F)c43)cc2)cn1` showed an IP [1] of 130 nM.

Work on `O=C(O)c1cn(Cc2cccc(OC(F)(F)F)c2)c2c(F)cccc2c1=O` yielded an IP [1] of 3600 nM.

Work on `O=C(NCCO)c1cccc(-c2ccc(Cn3cc(C(=O)O)c(=O)c4cccc(F)c43)cc2)c1` yielded an IP [1] of 99 nM.

Work on `O=C(O)c1cn(Cc2ccc(C(F)(F)F)cc2)c2c(F)cccc2c1=O` yielded an IP [1] of 980 nM.

`O=C(O)c1cn(CCc2ccccc2)c2ccccc2c1=O` showed an IP [1] greater than 100000 nM.

Work on `CN(C)Cc1cccc(-c2ccc(Cn3cc(C(=O)O)c(=O)c4cccc(F)c43)cc2)c1` yielded an IP [1] of 220 nM.

With `COc1ncc(-c2ccc(Cn3cc(C(=O)O)c(=O)c4ccccc43)c(F)c2)cn1` the IP [1] was 510 nM.
